Test results taken from patent publication US20250205276A1, “COMPOSITIONS AND METHODS OF TREATMENT OF DISEASE USING COMBINATION OF A NITRODILATOR AND A NITROGEN OXIDE COMPOUND” (LOMA LINDA UNIVERSITY, priority 2022, published 2025).
Like-named read-outs stand apart in the source and are kept apart here. One block for each compound: values may come before it.

How the values were obtained:
intact sheep = assay: Femoral vasodilation in intact sheep treated with L-NAME; type: in vivo; conditions: for femoral vasodilation in response to the SNO: sheep treated with L-NAME
newborn lambs = conditions: low micromolar intravenous nitrite
[1] = tested on: isolated sheep femoral arteries; assay: Use-dependent loss of vasodilatory response to GSNO in isolated arteries, potentiation and reversal; type: cell-based
Procedure: To increase the store experimentally, isolated sheep femoral arteries were pre-exposed to 1 μM nitrite, a concentration two-to-three orders of magnitude below which nitrite itself causes vasodilation.

intact rats = assay: Femoral vasodilation in intact rats treated with L-NAME; type: in vivo; conditions: for femoral vasodilation in response to the SNO: rats treated with L-NAME
coronary arteries = tested on: coronary arteries
Excerpt: SNOs, DNICs, heme-NO, nitroprusside, NTG, and other nitrodilators, dilate vessels via activation of soluble guanylyl cyclase (sGC) in vascular smooth muscle cells. These nitrodilators have potent NO-mimetic vasoactivities despite not releasing requisite amounts of free NO. These nitrodilators activate sGC via a preformed NANOS found within the vascular smooth muscle cell. Other examples of the nitrodilators include, but are not limited to, isosorbide dinitrate, isosorbide mononitrate, and nitrosyl complexes with metals or metalloproteins with metals other than iron.

sGC-cGMP pathway = assay: Potentiation of nitrodilator vasodilation by sGC-cGMP pathway agents in vitro; type: cell-based
Excerpt: In certain embodiments, the combined application of a nitrodilator and a nitrogen oxide compound is affected by a perturbation in the sGC-cGMP pathway. Vasodilation mediated by the nitrodilator and/or nitrogen oxide compound can be further facilitated by agents that enhance the sGC-cGMP pathway. Such agents include sGC stimulators and activators, cGMP-phosphodiesterase inhibitors, and others. The sGC stimulators directly activate reduced-heme-containing sGC that generates cGMP to cause vasodilation. The sGC activators activate sGC when the heme is oxidized or the heme moiety is missing. A sGC stimulator can be riociguat or vericiguat. The sGC activator can be runcaciguat, cinaciguat, ataciguat, or kynurenine. The cGMP-phosphodiesterase inhibitors, such as sildenafil, vardenafil, and tadalafil, stabilize cGMP via preventing its degradation by phosphodiesterase-5. […] Certain embodiments include methods of treating a vascular condition or a respiratory condition in a human subject by administering a therapeutically effective amount of a nitrogen oxide compound and a cGMP-phosphodiesterase inhibitor. […] The potentiation effects of riociguat and sildenafil on vasodilation by nitrodilators including GSNO have been confirmed in vitro.

[2] = tested on: isolated sheep mesenteric arteries; assay: Relaxation of endothelium-denuded sheep mesenteric arteries contracted with 5-HT; type: cell-based; conditions: for enabling of inhibition of vasodilation by CPTIO: SOD1 1000 U/ml, converts HNO into NO
Procedure: Isolated sheep mesenteric arteries were denuded of endothelium and contracted with 10 μM 5-HT (n=5). FIG. 5A presents examples of relaxation traces (one animal, six arterial strips) of NTG in the absence and presence of an sGC inhibitor (ODQ) (10 μM) or superoxide dismutase (SOD1) (1000 U/ml, converts HNO into NO), or the extracellular NO scavenger CPTIO (200 μM), or SOD1 and CPTIO together. All traces were normalized for comparison of extent of relaxation.
FIG. 5B is a graphical representation of the amplification of the area in the red circle in ‘A’. FIG. 5C is a graphical representation of the effects of SOD1, CPTIO, SOD1+CPTIO, and ODQ on relaxation in response to Nitroglycerin. FIG. 5D is a graphical representation of the effects of SOD1, CPTIO, and SOD1+CPTIO on relaxation in response to nitrosoglutathione (GSNO). SOD1, via putative conversion of HNO to NO, enables the inhibitory effects of CPTIO on relaxation caused by NTG and GSNO.
As discussed above, there are reasons to doubt whether NO itself is the mediator of sGC activation in the NANOS model. Rather, an equivalent of NO may be released by activation of the NANOS. […] The NO equivalent has HNO-like characteristics. […] Isolated sheep mesenteric arteries were denuded of endothelium and contracted with 10 μM 5-HT (n=5). FIG. 5A presents examples of relaxation traces (one animal, six arterial strips) of NTG in the absence and presence of an sGC inhibitor (ODQ) (10 μM) or superoxide dismutase (SOD1) (1000 U/ml, converts HNO into NO, or the extracellular NO scavenger CPTIO (200 μM), or SOD1 and CPTIO together. All traces were normalized for comparison of extent of relaxation. FIG. 5B is a graphical representation of the amplification of the area in the red circle in ‘A’. FIG. 5C is a graphical representation of the effects of SOD1, CPTIO, SOD1+CPTIO, and ODQ on relaxation in response to Nitroglycerin (NTG). FIG. 5D is a graphical representation of the effects of SOD1, CPTIO, and SOD1+CPTIO on relaxation in response to nitrosoglutathione (GSNO). SOD1, via putative conversion of HNO to NO, enables the inhibitory effects of CPTIO on relaxation caused by NTG and GSNO.

[3] = tested on: mesenteric vasculature of rats; assay: Mesenteric vasodilatory response to nitrodilators after chronic pretreatment of rats; type: in vivo; conditions: for effect of pretreatment on mesenteric vasodilatory response to nitrodilators: pretreatment for four days
Procedure: (§1) Likewise, NTG has been thought to activate sGC by releasing the NO moiety from its nitrate group via the action of enzymes such as aldehyde dehydrogenase-2. However, this conversion produces nitrite rather than NO, especially at therapeutic NTG concentrations (<1 μM).

isolated arteries = assay: Vasodilation of isolated arteries (potency, sustainability); type: cell-based; conditions: read-out: EC50 (vasodilatory sensitivity)
Procedure: as §1

[4] = not told
[5] = cited from earlier work; for membrane permeability in words: Hogg et al
sheep carotid artery = assay: Mobilization of N15-NOx from sheep carotid artery by intraluminal GSNO (GC-MS); conditions: 2 h, vs control
Procedure: FIG. 4A is an illustration of the protocol. A sheep carotid artery (length 8 cm) was incubated with 10 μM N^15-nitrite in DMEM under 10.5% O2 for 6 h to load the vessel with N^15-NOx (NO metabolites). FIG. 4B is an illustration of the prepared vessels. After extensive washes, the arteries were well sealed and incubated for 2 h with 3 ml 100 μM oxyhemoglobin in HEPES buffer on the extraluminal side and 5 μM GSNO or control (0.7 ml HEPES buffer containing 0.1 mM DTPA) on the luminal side. FIG. 4C is a graphical representation of the response of the arteries exposed to GSNO. The N^15-NOx levels were lower (p=0.0206) in the homogenate of arteries exposed to GSNO. FIG. 4D is a graphical representation of the response of the arteries exposed to intraluminal GSNO. The N^15-NOx in extraluminal buffer was higher (p=0.0400) in the arteries exposed to intraluminal GSNO. N^15-NOx was measured by GC-MS. The results are consistent with intraluminal GSNO stimulating an efflux of NOx from the vascular smooth muscle as manifested by a decrease in intracellular NOx and an increase in extracellular NOx.
DNICs function as an intracellular NO store. NO can be stored as DNICs in ferritin, a cytosolic protein that stores and releases iron in controlled fashion. […] N^15-NOx was measured by GC-MS. […]

[6] = Ability to release NO / stability

Compound: O=NO [nitrite]
- effect on vasodilatory responses to subsequent SNO infusions in femoral arteries (intact sheep; sheep pre-treated with L-NAME, intravenous sub-vasodilatory nitrite): potentiated
- effect on GSNO-mediated vasodilation (newborn lambs): potentiate
- effect on vasodilatory responses to GSNO ([1]; arteries pre-exposed to 1 μM nitrite): potentiate
- attenuation of vasodilatory response to GSNO after repeated GSNO exposure ([1]; subsequent incubation with 1 μM nitrite for 30 min): reversed
- effect on vasodilatory responses to subsequent SNO infusions in femoral arteries (intact rats; rats pre-treated with L-NAME, intravenous sub-vasodilatory nitrite): potentiated
- effect on NTG tolerance of coronary arteries (coronary arteries; in vitro): reverting NTG tolerance
- effect on NTG tolerance of coronary arteries (coronary arteries; in vivo): reverting NTG tolerance

Compound: COC(=O)N(C)c1c(N)nc(-c2nn(Cc3ccccc3F)c3ncccc23)nc1N [riociguat]
- effect on vasodilation by nitrodilators including GSNO (sGC-cGMP pathway): potentiation

Compound: SOD1: superoxide dismutase, converts HNO into NO
- enabling of inhibition of vasodilation by CPTIO [2]: enables inhibition of vasodilation by CPTIO

Compound: COC(=O)[C@@H](N)CCCNC(=N)N[N+](=O)[O-] [L-NAME]
- effect of chronic pretreatment on mesenteric vasodilation by GSNO, glut-BDNIC and NTG [3]: potentiated
- effect of pretreatment on mesenteric vasodilatory response to nitrodilators [3]: potentiated

Compound: [Cl][Cu] [CuCl]
- enabling of inhibition of vasodilation by CPTIO [2]: enable the inhibitory effects of CPTIO

Compound: O=[N+]([O-])OCC(CO[N+](=O)[O-])O[N+](=O)[O-] [NTG, nitroglycerin]
- EC50 (isolated arteries): < 100 nM
- Membrane permeability [4]: +

Compound: CC1(C)N([O])C(c2ccc(C(=O)O)cc2)=[N+]([O-])C1(C)C [CPTIO]
- effect on NTG- or GSNO-mediated relaxation ([2]; CPTIO 200 μM): does not affect

Compound: CC1(C)CC(O)CC(C)(C)N1[O] [TEMPOL]
- enabling of inhibition of vasodilation by CPTIO [2]: enable the inhibitory effects of CPTIO

- Membrane permeability [4]: −
Compound: N[C@H](CSN=O)C(=O)O [D-cysNO]
- femoral vasodilation in response to the SNO (intact sheep): greatly diminished or even absent
- membrane permeability in words [5]: largely membrane-impermeable
- femoral vasodilation in response to the SNO (intact rats): greatly diminished or even absent

- Membrane permeability [4]: −
Compound: N[C@@H](CCC(=O)N[C@@H](CSN=O)C(=O)NCC(=O)O)C(=O)O [GSNO, S-nitroso-glutathione]
- femoral vasodilation in response to the SNO (intact sheep): greatly diminished or even absent
- membrane permeability in words [5]: largely membrane-impermeable
- membrane permeability, fold less than L-cysNO ([5]; relative to L-cysNO): 200 fold
- N15-NOx levels in homogenate of arteries (sheep carotid artery; 5 μM GSNO luminal side, p=0.0206): lower
- N15-NOx in extraluminal buffer (sheep carotid artery; 5 μM intraluminal GSNO, p=0.0400): higher
- loss of initial vasodilatory response to GSNO ([1]; isolated vessels, after repeated exposures to GSNO): ~50%
- femoral vasodilation in response to the SNO (intact rats): greatly diminished or even absent

Compound: COC(=O)[C@H](N)CCCNC(=N)N[N+](=O)[O-] [D-NAME, D-NG-Nitro arginine methyl ester]
- effect of chronic pretreatment on mesenteric vasodilation by GSNO, glut-BDNIC and NTG [3]: potentiated
- effect of pretreatment on mesenteric vasodilatory response to nitrodilators [3]: potentiated

Compound: CNC(=N)NCCC[C@H](N)C(=O)O [L-NMMA]
- effect of pretreatment on mesenteric vasodilatory response to nitrodilators [3]: not observed

- Membrane permeability [4]: −
Compound: C=CC1=C(C)c2cc3[n-]c(cc4[n-]c(cc5nc(cc1n2)C(C)=C5C=C)c(C)c4CCC(=O)[O-])c(CCC(=O)[O-])c3C.N#[O+].[Fe].[H+].[H+] [Heme-NO, nitrosyl-heme]

- Membrane permeability [4]: +
- NO moiety released ([6]; over one hour, presence of metal chelator in PBS): < 10%
- stability, fold less stable than GSNO ([6]; relative to GSNO): 10 fold
Compound: N[C@@H](CSN=O)C(=O)O [L-cysNO, S-nitrosocysteine]
- femoral vasodilation in response to the SNO (intact sheep): greatly diminished or even absent
- membrane permeability in words [5]: can be taken up into cells via the L-type amino acid transporter (LAT)
- femoral vasodilation in response to the SNO (intact rats): greatly diminished or even absent

Compound: CCCc1nn(C)c2c(=O)[nH]c(-c3cc(S(=O)(=O)N4CCN(C)CC4)ccc3OCC)nc12 [sildenafil]
- effect on vasodilation by nitrodilators including GSNO (sGC-cGMP pathway): potentiation
